Among the data in PubChem BioAssay AID489024 (Sanford-Burnham Center for Chemical Genomics, 2010) are EC50 values, retold here.

For the assay, the target named is CHO-CHOP luciferase reporter, UPR activation, luminescence. The experiment in a line: activators of PERK-eIF2a-CHOP UPR arm, confirmation, CHO-CHOP cells, luciferase luminescence (AID 489024).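 Note: compounds added alone to reporter cells with no tunicamycin stress co-treatment.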

Structures are written as SMILES. The source made the active and inactive calls.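 Rule for the calls: active = compounds whose mean EC50, the dose giving half the maximal reporter activation, is at or below a set limit; inactive = the rest.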

For `O=C1NC(=O)C(=Cc2ccc(-c3ccc(Cl)cc3)o2)C(=O)N1`, the EC50 was 18.2 µM.
Next, `Cc1cc(N2CCN(c3ccc([N+](=O)[O-])c4cccnc34)CC2)c2ccccc2n1`: “inactive”.
As for `O=C1C(Cl)=C(NC(=O)c2ccccc2)C(=O)C(Cl)=C1NC(=O)c1ccccc1`, the EC50 is > 80 µM (inactive).
In the case of `Cn1nnnc1Sc1ncnc2scc(-c3cc4ccccc4o3)c12`, the 50% effective concentration (EC50) is 9.26 µM.
For the compound `Cc1ccc(C)c(C(=O)Cn2ncc(Cl)c(Cl)c2=O)c1`, the EC50 is 10.8 µM.
As to `Cc1[nH]c2ccccc2c1CN1CCC(Cc2ccccc2)CC1`, the EC50 was 11.1 µM.
Take `O=C(CN(c1cccc(C(F)(F)F)c1)S(=O)(=O)c1ccc(Cl)c([N+](=O)[O-])c1)NCc1ccc(F)cc1`: the EC50 is 11.7 µM.
As for `O=C(Oc1c(CN2CCOCC2)cc(Cl)c2cccnc12)c1ccccc1F`, the EC50 is 18.2 µM.
On to `O=C(/C=C/Sc1ccccc1)c1ccc(Cl)cc1`, for which the EC50 was 10.6 µM.
Consider `C/C(=N\NC(=O)c1cc(Br)ccc1O)c1ccccn1`, for which the EC50 is 6.67 µM.
`CCOC(=O)c1c(C)oc2c1c(C(c1cccnc1)N1CCOCC1)c(O)c1ccccc12` (centres undefined): the EC50 was 16.8 µM.
Next, `CC1=CC(C)(C)Nc2ccc(OC(=O)CN3C(=O)CCC3=O)cc21`: 9.58 µM.
Next, `CN1/C(=C\C(=O)COC(=O)c2ccc(O)c(O)c2)C(C)(C)c2ccccc21`: 6.67 µM; `O=c1c2ccccc2nc(/C=C/c2ccc([N+](=O)[O-])o2)n1-c1ccc(O)cc1`: 13.3 µM.
Consider `COc1ccccc1N=Cc1c(O)c2ccccc2oc1=O`, for which the EC50 is 12.5 µM.
For `Cc1ccc(C)c2sc(N3CCN(C(=O)c4ccc([N+](=O)[O-])o4)CC3)nc12`, the EC50 was 18.9 µM.
Turning to `CCOC(=O)N1CCN(S(=O)(=O)c2ccc(C(=O)Nc3nc4c(s3)CC(C)CC4)cc2)CC1` (centres undefined), the EC50 is > 80 µM (inactive).
As for `CCOC(=O)C(=Cc1ccc(F)cc1)C(=O)OCC`, the EC50 was > 80 µM (inactive).
Take `COc1cc(SC#N)ccc1N=Cc1c(C)[nH]n(-c2ccc(C)c(C)c2)c1=O`: the EC50 was 12.8 µM.
For the compound `Oc1cc(-c2cccnc2)cc2cccnc12`, the EC50 entry was “inactive”.
Turning to `CCOC(=O)c1ccc(N2C(=O)C=CC2=O)cc1`, the EC50 is > 80 µM (inactive).
With `CCN(CC)S(=O)(=O)c1cc(NC(=O)Cn2ncc(Cl)c(Cl)c2=O)ccc1C`, the concentration for a half-maximal effect (EC50) was 8.03 µM.
With `COc1ccc(-c2cc3ccccc3oc2=O)cc1NC(=S)NC(=O)c1ccc2c(c1)OCCO2`, the EC50 was 14.9 µM.
For the compound `Oc1ccc(/C=N/Nc2nc(N3CCCC3)nc(N3CCCC3)n2)cc1O`, the EC50 is 2.93 µM.
`COC(=O)C1=C(C)N(c2ccc(C)c(C)c2)/C(=C/c2cccs2)C1=O`: the EC50 was > 80 µM (inactive).
Next, `Oc1c(C(Nc2ccccn2)c2ccccn2)ccc2cccnc12` (centres undefined): 12.3 µM.
Take `C/C(=N\NC(=O)C(c1ccccc1)c1ccccc1)c1ccccn1`: the EC50 was 16 µM.
The result for `Cc1cc(C(=O)c2ccc(Cl)cc2)c(NC(=O)CCl)s1` reads 16.4 µM; that for `O=[N+]([O-])c1ccc(C=Nc2ccc(Cl)c([N+](=O)[O-])c2)s1`, > 80 µM (inactive).
For the compound `CC(C)N=c1scc(-c2ccco2)n1/N=C/c1ccc(O)c(O)c1`, the EC50 is 1.1 µM.
Regarding `O=C1NC(=S)NC(=O)C1=Cc1ccc(Br)s1`, the EC50 is > 80 µM (inactive).
With `Cc1ccc(Sc2nc(-c3ccccc3)nnc2C(F)(F)F)cc1`, the EC50 is > 80 µM (inactive).
Consider `COc1ccccc1N1CCN(Cc2ccc(O)c3ncccc23)CC1`, for which the concentration for a half-maximal effect (EC50) is 14.7 µM.
For `O=[N+]([O-])c1cc(-c2ncccn2)c([N+](=O)[O-])s1`, the 50% effective concentration (EC50) was 7.51 µM.
For `C=CCn1c(O)c(N=NC(=S)Nc2ccccc2F)c2cc(S(=O)(=O)N3CCOCC3)ccc21`, the EC50 was 7.34 µM.
For the compound `Cn1nc([N+](=O)[O-])c(C(C#N)c2ccccn2)c(Cl)c1=O` (centres undefined), the EC50 is > 80 µM (inactive).
With `COCCN1CSC(=S)N(Cc2ccco2)C1`, the EC50 is > 80 µM (inactive).
Take `CCOC(=O)c1c(NC(C)=O)sc2c1CCC(C=O)=C2Sc1ccccc1`: the EC50 is 7.12 µM.
The result for `O=C1Nc2ccccc2/C1=C\C(=O)c1ccccc1` reads 14.2 µM.
As for `CCCCC1CCC(C(=O)N(CCCC)c2c(N)n(CCCC)c(=O)[nH]c2=O)CC1` (centres undefined), the EC50 was > 80 µM (inactive).
For `Cc1[nH]c2c(C)cccc2c1CCNC(=O)c1ccc2c(c1[N+](=O)[O-])C(=O)c1ccccc1C2=O`, the concentration giving a half-maximal response (EC50) is 6.46 µM.
As for `CC1CCCCC1N1CN=C(Nc2nc3ccccc3s2)NC1` (centres undefined), the EC50 result is “inactive”.
The result for `Cc1ccc(F)cc1N=Cc1c(O)c2ccccc2oc1=O` reads 6.17 µM.
In the case of `COc1ccc(C(=O)N/N=C(\C)c2ccccn2)cc1OC`, the EC50 was 2.82 µM.
`COc1ccc(O)c(/C=N/Nc2nc(Nc3ccccc3)nc(-n3nc(C)cc3C)n2)c1`: the EC50 was 5.05 µM.
As to `N#C/C(=C\c1ccc([N+](=O)[O-])o1)C(=O)Nc1ccc(F)cc1`, the EC50 was 17.1 µM.
The result for `COc1ccc(/C=C\c2nc(=O)c3ccccc3o2)cc1` reads 8.46 µM; that for `Cc1ccc(C(=O)Cn2c(C(=O)/C=C/c3ccccc3)nc3ccccc32)cc1`, 13.7 µM; that for `CCCCn1c(/C=N/Nc2nc3ccccc3[nH]2)nc2ccccc21`, 12.3 µM.
Consider `N#Cc1ccc(N/N=C/c2cn(-c3ccccc3)nc2-c2ccccc2)c([N+](=O)[O-])c1`, for which the EC50 was > 80 µM (inactive).
For the compound `CCc1ccccc1NC(=S)N=Nc1c(O)n(C)c2ccc(S(=O)(=O)N3CCOCC3)cc12`, the EC50 was > 80 µM (inactive).
For the compound `CCNc1ccccc1CP(=O)(c1ccccc1)c1ccccc1O` (centres undefined), the EC50 is 15 µM.
With `COc1ccc(/C=C/c2ccc3cccc(O)c3n2)c(OC)c1OC`, the concentration giving a half-maximal response (EC50) is 8.23 µM.
On to `O=C1NN(c2cccc(Br)c2)C(=O)/C1=C/c1cccs1`, for which the EC50 entry is “inactive”.
Regarding `Cc1c(NC(=O)CSc2cccc3cccnc23)c(=O)n(-c2ccccc2)n1C`, the concentration giving a half-maximal response (EC50) was 6.53 µM.
`O=C(COc1ccc2ccccc2c1)N1CCN(Cc2c[nH]c3ccccc23)CC1`: the EC50 is 13.6 µM.
On to `CCCN(CCC)C(=O)c1cc([N+](=O)[O-])cc2c1-c1ccc([N+](=O)[O-])cc1C2=C(C#N)C#N`, for which the EC50 was 13.3 µM.
With `CC(C)c1nnc(NC(=O)CCS(=O)(=O)c2nc(-c3cccs3)cc(C(F)(F)F)n2)s1`, the EC50 is 13.5 µM.
For `CC1CCC/C=C/C2CC(O)CC2C(O)/C=C/C(=O)O1` (centres undefined), the EC50 was 1.34 µM.
Consider `CCOC(=O)Cc1csc(/N=C/c2c(O)n(-c3ccc(C)c(C)c3)c(=O)c3ccccc23)n1`, for which the half-maximal effective concentration (EC50) was 10.7 µM.
For `COC(=O)C1=C(C)N(c2ccc(C)c(C)c2)/C(=C/c2ccco2)C1=O`, the EC50 was 8.53 µM.
Consider `O=C(CCN1C(=O)/C(=C\c2ccccc2F)SC1=S)N1CCCCC1`, for which the EC50 was > 80 µM (inactive).
With `COc1cccc(N=Nc2ccc(O)c3ncccc23)c1`, the EC50 is 12.7 µM.
Regarding `O=C(N/N=C/c1ccccn1)c1cc(-c2ccccc2)nc2ccccc12`, the concentration for a half-maximal effect (EC50) was 5.91 µM.
On to `COc1cc(/C=C(/C(=O)c2cccs2)c2nc3ccccc3[nH]2)cc(OC)c1O`, for which the EC50 is 9.71 µM.
Consider `COc1cc(C(=O)Nc2nc(-c3ccc(Cl)cc3)c(C)s2)ccc1OCC(=O)Nc1ccc(F)cc1`, for which the EC50 is 13.3 µM.
On to `COCc1cc(C)nc(OCC(=O)N/N=C/c2ccc(-c3cc([N+](=O)[O-])ccc3Cl)o2)c1C#N`, for which the EC50 was 14.3 µM.
For the compound `Cc1nn(-c2ccccc2)c(C)c1/C=N/NC(=O)CSc1nc2ccccc2c(=O)n1-c1ccc(Br)cc1`, the EC50 is 9.85 µM.
Take `O=C1NC(=O)N(c2ccccc2)C(=O)/C1=C/C=C/c1ccco1`: the half-maximal effective concentration (EC50) is 9.82 µM.
With `Oc1ccc(-c2nc(-c3ccc(O)c(O)c3)cs2)cc1`, the EC50 was 9 µM.
Next, `COC(=O)C(=Cc1ccc(OCc2ccc([N+](=O)[O-])cc2)c(OC)c1)C(=O)OC`: 5.43 µM; `Cc1ccc2c(C(=O)CCl)c(C)[nH]c2c1`: 11.2 µM.
Next, `O=C(C#Cc1cccc([N+](=O)[O-])c1)c1ccccc1`: 8.96 µM; `COc1ccc2[nH]cc(C(=O)CCl)c2c1`: > 80 µM (inactive); `CCOC(=O)C1=C(CCl)NC(=O)NC1c1ccc2c(c1)OCO2` (centres undefined): > 80 µM (inactive).
Consider `Cc1ccc(-c2nc(N/N=C/c3cccc([N+](=O)[O-])c3)c3ccccc3n2)cc1`, for which the EC50 result is “inactive”.
Take `CC1CCC/C=C/C(=O)c2c(O)cc(O)cc2CC(=O)O1` (centres undefined): the EC50 is > 80 µM (inactive).
Take `CC(C)N1CSC(=S)N(Cc2ccccc2)C1`: the EC50 was 10.6 µM.
Next, `COc1cc2nc(NC(=O)c3ccc(Cl)cc3)sc(=O)c2cc1OC`: “inactive”.
For `Cc1cc(C)n(-c2nc(NC(C)(C)C)nc(NC(C)(C)C)n2)n1`, the EC50 is > 80 µM (inactive).
For the compound `O=C1CC(c2cccc(Cl)c2)CC(O)=C1C=Nc1ccccc1` (centres undefined), the EC50 was 16.2 µM.
Next, `CCOC(=O)C(=Cc1ccc(-n2ccnc2)cc1)C(=O)OCC`: 9.57 µM; `CCc1ccc2c(c1)C1(NN=C(c3ccccc3)S1)C(=O)N2` (centres undefined): 3.36 µM.
For the compound `Cc1coc2c1C(=O)C(=O)c1c-2ccc2c(C)cccc12`, the EC50 was > 80 µM (inactive).
As to `O=C(Nc1nc2c(F)cc(F)cc2s1)c1ccccn1`, the concentration giving a half-maximal response (EC50) was 6.35 µM.
Consider `O=C(/C=C/c1ccco1)NC(=S)Nc1ccc(O)c(-c2nc3ccccc3s2)c1`, for which the EC50 was 11.8 µM.
Next, `COc1cc(/C=C2\COC/C(=C\c3ccc(O)c(OC)c3)C2=O)ccc1O`: 6.34 µM; `O=C(Nc1ccc2oc(-c3ccncc3)nc2c1)c1ccc([N+](=O)[O-])o1`: 0.82 µM; `Cc1c(C(=O)c2no[n+]([O-])c2C(=O)c2cnn(C)c2C)cnn1C`: > 80 µM (inactive).
Regarding `Cc1ccc(C[n+]2c(-c3ccc(C)cc3)cc(-c3ccc(C)cc3)cc2-c2ccc(C)cc2)cc1`, the half-maximal effective concentration (EC50) is 4.67 µM.
As to `Cc1ccc(S(=O)(=O)Nc2cccc3cccnc23)cc1`, the EC50 was 4.41 µM.
As to `O=[N+]([O-])c1ccc2nc(Cl)nc(-c3ccccc3)c2c1`, the EC50 is 12.5 µM.
For `COc1cc([C@H]2c3[nH]c4ccccc4c3C[C@H]3C(=O)N4[C@@H](c5cc(OC)c(OC)c(OC)c5)c5[nH]c6ccccc6c5C[C@H]4C(=O)N23)cc(OC)c1OC`, the concentration giving a half-maximal response (EC50) is 11.3 µM.
`Oc1c(N=Nc2ccccn2)ccc2ccccc12`: the EC50 is 6.46 µM.
